ChEMBL document CHEMBL4184269, “Novel aromatic sulfonyl naphthalene-based boronates as 20S proteasome inhibitors” (Bioorg Med Chem, 2018)
pIC50: −log10 of the molar value.

Legend:
MDA-MB-231 = assay: Antiproliferative activity against human MDA-MB-231 cells after 72 hrs by SRB assay; format: functional, cell-based
MCF7 = assay: Antiproliferative activity against human MCF7 cells after 72 hrs by SRB assay; format: functional, cell-based
[1] = target: T1, Proteasome Macropain subunit MB1 (Homo sapiens) (UniProt P28074); assay: Inhibition of chymotrypsin-like activity of human 20S proteasome at 100 nM using Suc-Leu-Leu-Val-Tyr-AMC as substrate by fluorescence assay relative to control
T1 sequence (whole entry): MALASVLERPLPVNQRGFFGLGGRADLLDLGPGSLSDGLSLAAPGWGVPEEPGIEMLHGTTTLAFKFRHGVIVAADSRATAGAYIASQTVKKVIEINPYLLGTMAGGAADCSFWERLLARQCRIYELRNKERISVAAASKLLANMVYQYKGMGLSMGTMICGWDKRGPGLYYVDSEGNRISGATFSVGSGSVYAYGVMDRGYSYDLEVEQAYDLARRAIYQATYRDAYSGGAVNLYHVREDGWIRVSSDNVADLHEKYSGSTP

A549 = assay: Antiproliferative activity against human A549 cells after 72 hrs by SRB assay; format: functional, cell-based
[2] = Metabolic stability in Sprague-Dawley rat liver microsomes assessed as parent compound remaining at […] preincubated for 5 mins followed by NADPH addition measured after 40 mins by HPLC analysis; format: ADME, microsome; conditions: read-out: Stability
[3] = target: T1, Proteasome Macropain subunit MB1 (Homo sapiens); assay: Inhibition of chymotrypsin-like activity of human 20S proteasome at 10 nM using Suc-Leu-Leu-Val-Tyr-AMC as substrate by fluorescence assay relative to control

CC(C)C[C@H](NC(=O)CSc1cc(NS(=O)(=O)c2ccccc2)c2ccccc2c1O)B(O)O
pIC50 (MDA-MB-231; Homo sapiens, MDA-MB-231, 72 h): 4.98
pIC50 (MCF7; Homo sapiens, MCF7, 72 h): 5.38
inhibition [1]: 32.5%

CC(C)C[C@H](NC(=O)C(C)Sc1cc(NS(=O)(=O)c2ccccc2)c2ccccc2c1O)B(O)O (stereo in doubt; 3b-1) [listing 1 of 2 here]
inhibition [1]: 25.4%

CC(=O)Nc1ccc(S(=O)(=O)Nc2cc(SCC(=O)N[C@@H](CC(C)C)B(O)O)c(O)c3ccccc23)cc1
pIC50 (MDA-MB-231; Homo sapiens, MDA-MB-231, 72 h): 5.35
pIC50 (MCF7; Homo sapiens, MCF7, 72 h): 5.06
inhibition [1]: 40.8%

CC(C)C[C@H](NC(=O)CSc1cc(NS(=O)(=O)c2ccc(Cl)cc2)c2ccccc2c1O)B(O)O
pIC50 (MDA-MB-231; Homo sapiens, MDA-MB-231, 72 h): 5.21
pIC50 (MCF7; Homo sapiens, MCF7, 72 h): 4.98
inhibition [1]: 45.1%

CC(C)C[C@H](NC(=O)C(C)Sc1cc(NS(=O)(=O)c2cccs2)c2ccccc2c1O)B(O)O (stereo not given in full)
pIC50 (MDA-MB-231; Homo sapiens, MDA-MB-231, 72 h): 5.13
pIC50 (MCF7; Homo sapiens, MCF7, 72 h): 4.83
inhibition [1]: 41.1%

Cc1ccc(S(=O)(=O)Nc2cc(SC(C)C(=O)N[C@@H](CC(C)C)B(O)O)c(O)c3ccccc23)cc1 (stereo not given in full)
pIC50 (MDA-MB-231; Homo sapiens, MDA-MB-231, 72 h): 5.09
pIC50 (MCF7; Homo sapiens, MCF7, 72 h): 5.06
inhibition [1]: 35.5%

CC(C)C[C@H](NC(=O)C(C)Sc1cc(NS(=O)(=O)c2ccccc2)c2ccccc2c1O)B(O)O (stereo in doubt; 3b) [listing 1 of 2 here]
inhibition [1]: 22.6%

CC(=O)Nc1ccc(S(=O)(=O)Nc2cc(SCCC(=O)N[C@@H](CC(C)C)B(O)O)c(O)c3ccccc23)cc1
pIC50 (MDA-MB-231; Homo sapiens, MDA-MB-231, 72 h): 5.67
pIC50 (MCF7; Homo sapiens, MCF7, 72 h): 5.18
inhibition [1]: 38.4%

C[S+](C)[O-]
inhibition [1]: 4.89%

Cc1ccc(S(=O)(=O)Nc2cc(SCC(=O)N[C@@H](CC(C)C)B(O)O)c(O)c3ccccc23)cc1
pIC50 (MDA-MB-231; Homo sapiens, MDA-MB-231, 72 h): 4.85
pIC50 (MCF7; Homo sapiens, MCF7, 72 h): 4.89
inhibition [1]: 36.6%

CC(C)C[C@H](NC(=O)C(C)Sc1cc(NS(=O)(=O)c2ccc(Cl)cc2)c2ccccc2c1O)B(O)O (stereo in doubt; 3c) [listing 1 of 2 here]
inhibition [1]: 41.5%

CC(C)C[C@H](NC(=O)CCSc1cc(NS(=O)(=O)c2cccs2)c2ccccc2c1O)B(O)O
pIC50 (MDA-MB-231; Homo sapiens, MDA-MB-231, 72 h): 5.35
pIC50 (MCF7; Homo sapiens, MCF7, 72 h): 5.19
inhibition [1]: 38.3%

CC(C)C[C@H](NC(=O)C(C)Sc1cc(NS(=O)(=O)c2ccc(Cl)cc2)c2ccccc2c1O)B(O)O (stereo in doubt; 3c) [listing 2 of 2 here]
pIC50 (MDA-MB-231; Homo sapiens, MDA-MB-231, 72 h): 5.21
pIC50 (MCF7; Homo sapiens, MCF7, 72 h): 4.99
pIC50 (A549): 4.78

CC(=O)Nc1ccc(S(=O)(=O)Nc2cc(SC(C)C(=O)N[C@@H](CC(C)C)B(O)O)c(O)c3ccccc23)cc1 (stereo not given in full)
pIC50 (MDA-MB-231; Homo sapiens, MDA-MB-231, 72 h): 5.55
pIC50 (MCF7; Homo sapiens, MCF7, 72 h): 5.05
inhibition [1]: 27.4%

CC(C)C[C@H](NC(=O)CCSc1cc(NS(=O)(=O)c2ccccc2)c2ccccc2c1O)B(O)O
pIC50 (MDA-MB-231; Homo sapiens, MDA-MB-231, 72 h): 5.38
pIC50 (MCF7; Homo sapiens, MCF7, 72 h): 5.13
inhibition [1]: 45.6%

Cc1ccc(S(=O)(=O)Nc2cc(SCCC(=O)N[C@@H](CC(C)C)B(O)O)c(O)c3ccccc23)cc1
pIC50 (MDA-MB-231; Homo sapiens, MDA-MB-231, 72 h): 5.21
remaining at 40 min [2]: 56%
pIC50 (MCF7; Homo sapiens, MCF7, 72 h): 5.16
inhibition [1]: 54.2%

CC(C)C[C@H](NC(=O)C(C)Sc1cc(NS(=O)(=O)c2ccccc2)c2ccccc2c1O)B(O)O (stereo in doubt; 3b) [listing 2 of 2 here]
pIC50 (MDA-MB-231; mda-mb-231): 4.96
pIC50 (MCF7; Homo sapiens, MCF7, 72 h): 4.78
pIC50 (A549): 5.35

CC(C)C[C@H](NC(=O)[C@H](Cc1ccccc1)NC(=O)c1cnccn1)B(O)O [BORTEZOMIB]
pIC50 (MDA-MB-231; Homo sapiens, MDA-MB-231, 72 h): 5.51
remaining at 40 min [2]: 30%
pIC50 (MCF7; Homo sapiens, MCF7, 72 h): 4.74
inhibition [3]: 51.2%

CC(C)C[C@H](NC(=O)C(C)Sc1cc(NS(=O)(=O)c2ccc(Cl)cc2)c2ccccc2c1O)B(O)O (stereo in doubt; 3c-1) [listing 1 of 2 here]
pIC50 (MDA-MB-231; mda-mb-231): 5.19
pIC50 (MCF7; mcf7): 4.97

CC(C)C[C@H](NC(=O)C(C)Sc1cc(NS(=O)(=O)c2ccc(Cl)cc2)c2ccccc2c1O)B(O)O (stereo in doubt; 3c-1) [listing 2 of 2 here]
inhibition [1]: 39.4%

O=C(O)CSc1cc(NS(=O)(=O)c2cccs2)c2ccccc2c1O
inhibition [1]: 6.86%

CC(C)C[C@H](NC(=O)CCSc1cc(NS(=O)(=O)c2ccc(Cl)cc2)c2ccccc2c1O)B(O)O
pIC50 (MDA-MB-231; Homo sapiens, MDA-MB-231, 72 h): 5.39
pIC50 (MCF7; Homo sapiens, MCF7, 72 h): 5.16
inhibition [1]: 52.5%

CC(C)C[C@H](NC(=O)C(C)Sc1cc(NS(=O)(=O)c2ccccc2)c2ccccc2c1O)B(O)O (stereo in doubt; 3b-1) [listing 2 of 2 here]
pIC50 (MDA-MB-231; mda-mb-231): 5.29
pIC50 (MCF7; mcf7): 4.95

CC(C)C[C@H](NC(=O)CSc1cc(NS(=O)(=O)c2cccs2)c2ccccc2c1O)B(O)O
pIC50 (MDA-MB-231; Homo sapiens, MDA-MB-231, 72 h): 5.19
pIC50 (MCF7; Homo sapiens, MCF7, 72 h): 5.02
inhibition [1]: 33.3%
